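Step 1: Grow cells in 96-well plates. Step 2: Expose to compound for 48 hours at 5 concentrations. Step 3: Interpolate endpoints linearly; if unreached, use highest concentration. TGI is the concentration that stops growth completely.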
Legend:
Assay in all cases: growth of human tumour cells (NCI), 48 h
HOP-92 NSCLC = tested on: HOP-92 NSCLC
NCI-H23 lung = tested on: NCI-H23 lung
OVCAR-5 ovarian = tested on: OVCAR-5 ovarian
NCI-H226 lung = tested on: NCI-H226 lung
SK-MEL-5 melanoma = tested on: SK-MEL-5 melanoma
NCI-H460 lung = tested on: NCI-H460 lung
UACC-257 melanoma = tested on: UACC-257 melanoma
HOP-62 NSCLC = tested on: HOP-62 NSCLC
SF-268 CNS = tested on: SF-268 CNS
M14 melanoma = tested on: M14 melanoma
MOLT-4 leukemia = tested on: MOLT-4 leukemia
K-562 leukemia = tested on: K-562 leukemia
NCI-H522 lung = tested on: NCI-H522 lung
SNB-19 CNS = tested on: SNB-19 CNS
MALME-3M melanoma = tested on: MALME-3M melanoma
SNB-78 CNS = tested on: SNB-78 CNS
DMS 114 small cell lung = tested on: DMS 114 small cell lung
KM20L2 colon = tested on: KM20L2 colon
HCC-2998 colon = tested on: HCC-2998 colon
CCRF-CEM leukemia = tested on: CCRF-CEM leukemia
RXF 393 renal = tested on: RXF 393 renal
HCT-15 colon = tested on: HCT-15 colon
HOP-18 NSCLC = tested on: HOP-18 NSCLC
RPMI-8226 leukemia = tested on: RPMI-8226 leukemia
DLD-1 colon = tested on: DLD-1 colon
SNB-75 CNS = tested on: SNB-75 CNS
UO-31 renal = tested on: UO-31 renal
SN12C renal = tested on: SN12C renal
HT29 colon = tested on: HT29 colon
786-0 renal = tested on: 786-0 renal
UACC-62 melanoma = tested on: UACC-62 melanoma
CAKI-1 renal = tested on: CAKI-1 renal
SF-539 CNS = tested on: SF-539 CNS
M19-MEL melanoma = tested on: M19-MEL melanoma
LOX IMVI melanoma = tested on: LOX IMVI melanoma
COLO 205 colon = tested on: COLO 205 colon
A549 NSCLC = tested on: A549 NSCLC
XF 498 CNS = tested on: XF 498 CNS
LXFL 529 NSCLC = tested on: LXFL 529 NSCLC
SK-MEL-2 melanoma = tested on: SK-MEL-2 melanoma
OVCAR-4 ovarian = tested on: OVCAR-4 ovarian
IGROV1 ovarian = tested on: IGROV1 ovarian
OVCAR-8 ovarian = tested on: OVCAR-8 ovarian
EKVX NSCLC = tested on: EKVX NSCLC
SW-620 colon = tested on: SW-620 colon
SK-OV-3 ovarian = tested on: SK-OV-3 ovarian
ACHN renal = tested on: ACHN renal
DMS 273 small cell lung = tested on: DMS 273 small cell lung
SK-MEL-28 melanoma = tested on: SK-MEL-28 melanoma
U251 CNS = tested on: U251 CNS
HCT-116 colon = tested on: HCT-116 colon
TK-10 renal = tested on: TK-10 renal
KM12 colon = tested on: KM12 colon
SF-295 CNS = tested on: SF-295 CNS
OVCAR-3 ovarian = tested on: OVCAR-3 ovarian
A498 renal = tested on: A498 renal
SR leukemia = tested on: SR leukemia
HL-60(TB) leukemia = tested on: HL-60(TB) leukemia
RXF-631 renal = tested on: RXF-631 renal

Measured: TGI

O=C(O)CNS(=O)(=O)c1ccc(NCc2ccccc2)cc1
not listed: KM12 colon | SF-295 CNS | OVCAR-3 ovarian | A498 renal | SR leukemia | HL-60(TB) leukemia | RXF-631 renal
> 100 µM: all other assays above

COC(=O)C1Cc2c(n(Cc3ccccc3)c3ccccc23)C(CCC(=O)O)N1C(C)C (configuration not stated)
not listed: HOP-62 NSCLC | RXF 393 renal | RPMI-8226 leukemia | XF 498 CNS
> 100 µM: all other assays above
